Laboratory results published in PMC10137817, “Efficient Degradation for Raffinose and Stachyose of a β-D-Fructofuranosidase and Its New Function to Improve Gel Properties of Coagulated Fermented-Soymilk” (Gels, 2023).

Target: T1, LcFFase1s (β-D-fructofuranosidase) (Leptothrix cholodnii, UniProt B1Y2A2)
T1 construct: gene Lcho_3297; codon-optimised synthetic gene in pET-28a(+) NdeI/XhoI, E. coli BL21(DE3), Ni-IDA purified (His tag implied, cleavage not mentioned)
T1 sequence (B1Y2A2 1-480): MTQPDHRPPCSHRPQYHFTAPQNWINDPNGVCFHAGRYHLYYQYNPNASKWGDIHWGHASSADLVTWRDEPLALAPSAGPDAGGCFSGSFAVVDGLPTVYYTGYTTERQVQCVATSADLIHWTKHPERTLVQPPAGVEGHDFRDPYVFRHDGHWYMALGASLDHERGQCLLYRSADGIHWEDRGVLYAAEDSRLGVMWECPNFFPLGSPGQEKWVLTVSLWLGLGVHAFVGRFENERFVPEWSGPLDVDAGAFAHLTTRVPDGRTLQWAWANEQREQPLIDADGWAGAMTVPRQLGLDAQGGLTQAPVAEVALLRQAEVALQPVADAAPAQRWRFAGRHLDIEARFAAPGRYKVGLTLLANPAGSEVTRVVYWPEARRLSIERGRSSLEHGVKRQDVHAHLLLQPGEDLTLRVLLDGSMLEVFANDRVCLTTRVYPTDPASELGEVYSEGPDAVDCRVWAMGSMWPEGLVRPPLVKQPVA
Experiment: TLC of hydrolysis products
Assay type: biochemical
Settings: 20 mg/mL substrate, 5 U/mL enzyme, 50 mM sodium hydrogen phosphate-citrate pH 6.5, 40 °C

Structure (SMILES)	TLC of hydrolysis products
OC[C@H]1O[C@H](OC[C@H]2O[C@H](O[C@]3(CO)O[C@H](CO)[C@@H](O)[C@@H]3O)[C@H](O)[C@@H](O)[C@@H]2O)[C@H](O)[C@@H](O)[C@H]1O [raffinose]	LcFFase1s entirely hydrolyzed raffinose and stachyose into fructose and melibiose or raffinose
OC[C@H]1O[C@H](OC[C@H]2O[C@H](OC[C@H]3O[C@H](O[C@]4(CO)O[C@H](CO)[C@@H](O)[C@@H]4O)[C@H](O)[C@@H](O)[C@@H]3O)[C@H](O)[C@@H](O)[C@H]2O)[C@H](O)[C@@H](O)[C@H]1O [stachyose]	LcFFase1s entirely hydrolyzed raffinose and stachyose into fructose and melibiose or raffinose
